Where two headings read alike, the source gives them in different places. Some results are limits rather than exact numbers.

Usually CC50 stands for the concentration that lowers cell viability or growth by half. The IC50 is the concentration needed to halve the response being measured.

Series [1] is described as follows: Cytotoxicity assay on MRC-5 fibroblasts. It is filed as cell-based. Conditions: human; for CC50 at 3 day: MRC-5SV2 embryonic lung fibroblasts, Table 1, mean and SEM of two independent experiments, highest concentration 64 μM, read-out: MRC-5 off-target cytotoxicity (CC50); for IC50 at 3 day: MRC-5SV2 human embryonic lung fibroblasts, Table 2, two independent repeat experiments. The protocol:
MRC-5SV2 (Sigma-Aldrich/ECACC, catalogue number 84100401) human embryonic lung fibroblasts were used to perform cytotoxicity assays. The cells were cultured in minimum essential medium (MEM, Life Technologies) with Earle's salt medium, supplemented with L-glutamine, NaHCO3 and 5% inactivated fetal bovine serum (iFBS). Cells were seeded at 1.5×10^4 cells/well and 4-fold compound dilutions were immediately added with a highest in-test concentration of 64 μM. After a 3-day incubation, resazurin (Sigma-Aldrich) was added to each well (final concentration of 10 μg mL^−1), and cell viability was assessed by fluorescent reading (Tecan®, GENios) following 4 h of incubation with resazurin (37° C./5% CO2). The results were expressed as percentage reduction in cell growth/viability compared to control wells and the 50% cytotoxic concentration (CC50) was calculated for each of the compounds.

The subject of series [2] is isometamidium (ISM)-resistant T. congolense strain (MSORO M7H). Nature of the series: Ex vivo drug susceptibility assay, T. congolense ISM-resistant. The class given is cell-based. Conditions: Trypanosoma congolense; Table 2; two independent repeat experiments; read-out: IC50 T. congolense ISM-R. From the text:
(§1) T. congolense (IL3000), the isometamidium (ISM)-resistant T. congolense strain (MSORO M7H), T. evansi type A (RoTat 1.2), T. evansi type B (KETRI 2479) and T. equiperdum (BoTat 1.1) used for in vitro, ex vivo and in vivo experiments were kindly provided by the Institute of Tropical Medicine (ITM), and T. vivax (ILRAD700) and T. congolense (TC13) used for ex vivo and in vivo experiments, were kindly provided by the University of Brussel (VUB).
(§2) Ex Vivo Drug Susceptibility Assays for T. vivax, T. congolense ISM-Resistant, and T. evansi Type B
(§3) For Trypanosoma species/strains that were not adapted to culture conditions, donor mice were infected intraperitoneally with 10^4 parasites. Around day 5-6 post infection, blood was collected via cardiac puncture and parasites were isolated using mini-anion exchange centrifugation technique (mAECT). 4-fold dilutions of the test compounds were prepared with the highest concentration of 64 μM, and parasites were seeded at 1×10^5 parasite/well. Following 24 h of drug exposure at 37° C. and 5% CO2, resazurin was added to the wells and plates were incubated (37° C./5% CO2) for another 24 h. Cell viability was determined by fluorescence reading (Tecan®, GENios), and IC50 values were calculated by non-linear regression (dose-response curve with variable slope) using Prism 8.0 (GraphPad Software Inc., San Diego, CA, USA).

A short description of series [3]: In vitro metabolic stability, mouse liver S9. It is filed as in vitro ADME. Conditions: for metabolic stability in mouse liver microsomes: mouse liver S9, phase-I, without 1-ABT; for effect of 1-aminobenzotriazole (1-ABT) on phase-I metabolic decay: mouse microsome pre-incubated with 1-ABT. As to the method: The metabolic stability of selected compounds was determined in the presence of mice, horse, and bovine liver microsome fractions (S9) through phase-I (CYP450 and NADPH dependent enzymes) and Phase-II (UGT enzymes) metabolisms. Samples were collected after 0, 15, 30, and 60 minutes of incubation and the corresponding loss of parent compound was determined via liquid chromatography (UPLC) (Waters Aquity™) coupled with tandem quadrupole mass spectrometry (MS^2) (Waters Xevo™), equipped with an electrospray ionization (ESI) interface and operated in multiple reaction monitoring (MRM) mode.
(In general: Microsomes from liver hold many membrane-bound enzymes, among them those of drug oxidation.)

Series [4] relates to T. evansi type B (KETRI 2479). Nature of the series: Ex vivo drug susceptibility assay, T. evansi type B. It is filed as cell-based. Particulars: Table 2; two independent repeat experiments.
Excerpt: as §1, §2, §3

In series [5] the test system is T. evansi type A (RoTat 1.2). The series can be described thus: In vitro drug susceptibility assay, T. evansi type A. It is filed as cell-based. Particulars: Table 2; two independent repeat experiments; read-out: IC50 T. evansi (type A). As to the method:
(§4) Drug susceptibility assays with T. brucei (Squib 427), T. evansi type A (RoTat 1.2) and T. equiperdum (BoTat 1.1) were performed under similar conditions. Parasites were cultured in HMI-9 culture medium supplemented with 10% iFBS. To determine in vitro susceptibility of the abovementioned Trypanosoma species, 10 concentrations of a 4-fold dilution series (with a highest in-test concentration of 64 μM) was prepared for each compound, and parasites were seeded at 1.5×10^4 parasite/well. After 72 h of drug exposure at 37° C. with 5% CO2, resazurin was added to the wells (final concentration of 10 μg mL^−1), followed by another incubation for 24 h. Cell viability was determined by fluorescence reading (Tecan®, GENios) and 50% inhibitory concentration (IC50) was calculated for each compound.

The subject of series [6] is T. vivax (ILRAD700). Nature of the series: Ex vivo drug susceptibility assay, T. vivax. It is filed as cell-based. Particulars: Trypanosoma vivax.
Excerpt: as §1, §2, §3

In series [7] the test system is T. equiperdum (BoTat 1.1). Nature of the series: In vitro drug susceptibility assay, T. equiperdum. The class given is cell-based. Conditions: Trypanosoma equiperdum; Table 2; two independent repeat experiments. As to the method: as §4
Series [8] deals with T. congolense (IL3000). Nature of the series: In vitro drug susceptibility assay, T. congolense. Particulars: Trypanosoma congolense; Table 2; two independent repeat experiments. The class given is cell-based. The protocol: Drug susceptibility assays for T. congolense (IL3000) were performed with parasites cultured in HMI-9 medium supplemented with 15% horse serum. Parasites were seeded at a concentration of 1.5×10^4 parasite/well and exposed to a 4-fold compound dilution series starting at a highest in-test concentration of 64 μM. Plates were incubated for 72 h at 34° C. and 5% CO2, followed by the addition of resazurin (Sigma, Aldrich) and a further incubation period of 24 h. Cell viability was quantified by fluorescence reading (Tecan®, GENios), and IC50 values were calculated by non-linear regression (dose-response curve with variable slope) using Prism 8.0 (GraphPad Software Inc., San Diego, CA, USA).

Series [9] relates to T. brucei (Squib 427). Nature of the series: In vitro drug susceptibility assay, T. brucei. It is filed as cell-based. Conditions: Trypanosoma brucei. The protocol: as §4
In series [10] the test system is T. B. brucei AnTAR1.1 PPYRE9. Nature of the series: Bioluminescent T. brucei late curative mouse model. It is filed as in vivo, female Swiss mice. Conditions: single-dose i.p. 50 mg kg−1. As to the method: Female Swiss mice (BW˜20-24 g; Janvier Labs, France) were randomly allocated to group of 3 animals and were intraperitoneally infected with 2×10^3 T. B. brucei AnTAR1.1 PPYRE9 derived from a heavily infected donor mouse. FH15967 was formulated in 10% (v/v) polyethylene glycol 400 (PEG400) in water at 2 mg mL^−1 and was administrated to separate groups as single dose s.i.d. i.p. at 50 mg kg-1 (n=3), and b.i.d i.p. at 50 mg kg^−1 (n=3). The reference drug diminazene aceturate was formulated in PBS at 2.5 mg mL^−1 and administrated s.i.d i.p. as a single dose at 10 mg kg^−1. Treatment was initiated at 3 dpi when parasitemia reached 10^6 parasites mL^−1, and parasitemia was microscopically determined via Neubaur improved haemocytometer on a daily basis until 7 dpi. Bioluminescent images were obtained at 3, 5 and 7 dpi to determine parasite burdens in the body. Accordingly, D-luciferin was injected i.p. at 15 mg kg^−1, animals were anaesthetised using isoflurane, and luminescent signals were acquired from both the dorsal and ventral sides of the animals. […] BLI images that obtained from IVIS Spectrum In vivo Imaging System (Perkin Elmer) were quantified with Living Image V4.3.1 SoftWoRx Suite 2.0 for microscopy, then processing using the Fiji software.

[11] abbreviates: Table 1, mean and SEM of two independent experiments, read-out: T. vivax in vitro activity (IC50).
Where [12] appears, read: Table 2, two independent repeat experiments, read-out: IC50 T. vivax.
[13] abbreviates: Table 1, mean and SEM of two independent experiments, read-out: T. brucei in vitro activity (IC50).
[14] abbreviates: Table 2, two independent repeat experiments, read-out: IC50 T. brucei.

As to `OC[C@H]1O[C@@H](n2ccc3c(Sc4ccccc4)ncnc32)[C@H](O)[C@@H]1O` [FH15967, 4-S-phenyl-N7-(β-D-ribofuranosyl)pyrrolo[2,3-d]pyrimidine], the CC50 at 3 day in [1] is greater than 64000 nM. This compound also registered an IC50 at 3 day in series [1] greater than 64000 nM. Moreover, the IC50 in [2] turned out to be 180 ± 9 nM; in series [4] it was 18 ± 6 nM; in [5], 33 ± 6 nM; in series [6] (setting [11]), 44 ± 5 nM; in series [6] (setting [12]) it was 44 ± 5 nM; in [7], 26 ± 5 nM. Besides, the IC50 in [8] turned out to be 100 ± 20 nM; in series [9] (setting [13]) it was 31 ± 8 nM; in series [9] (setting [14]), 31 ± 8 nM. In series [3], the “metabolic stability in mouse liver microsomes” value (shortened to “metabolic stability”) is recorded as “phase-I metabolic degradation”. Besides, the “effect of 1-aminobenzotriazole (1-ABT) on phase-I metabolic decay” value (“effect of 1-aminobenzotriazole (1-ABT)” for short) in series [3] is on record as “adequately block phase-I metabolic decay”. Also, the “parasitemia decline by bioluminescent imaging and signal quantification” value in series [10] (even faster than the diminazene aceturate reference group) is reported as “rapid parasitemia decline”. Also, the blood parasitemia entry in [10] (until day 7 post infection) was “negative blood parasitemia”.
As to `C=CCSc1ncnc2c1ccn2[C@@H]1O[C@H](CO)[C@@H](O)[C@H]1O` [FH15963, 4-S-allyl-N7-(β-D-ribofuranosyl)pyrrolo[2,3-d]pyrimidine], the CC50 at 3 day in series [1] was greater than 64000 nM. The compound also came in with an IC50 at 3 day in series [1] greater than 64000 nM. Besides, the IC50 in series [2] came to 140 ± 50 nM; in series [4] it was 14 ± 4 nM; in series [5] it was 100 ± 5 nM; in [6] (setting [11]) it was 34 ± 4 nM; in series [6] (setting [12]), 34 ± 4 nM; in series [7], 25 ± 4 nM. The IC50 in [8] stood at 180 ± 8 nM; in [9] (setting [13]), 34 ± 1 nM; in series [9] (setting [14]) it was 34 ± 1 nM. In addition, the “metabolic stability” value in [3] is “phase-I metabolic degradation”. The “effect of 1-aminobenzotriazole (1-ABT)” value in series [3] is “adequately block phase-I metabolic decay”.
Take `CSc1ncnc2c1ccn2[C@@H]1O[C@H](CO)[C@@H](O)[C@H]1O` [FH15961/CL5565]: in [1], the CC50 at 3 day is greater than 64000 nM. Besides, the IC50 at 3 day in series [1] is greater than 64000 nM. The half-inhibitory concentration (IC50) came to 430 ± 20 nM in [2]; 16 ± 3 nM in [4]; 760 ± 30 nM in [5]; 5 ± 10 nM in [6] (setting [11]); 4 ± 2 nM in series [6] (setting [12]); 40 ± 0.2 nM in series [7]. The IC50 in series [8] was determined as 43 ± 8 nM; in [9] (setting [13]) it was 440 ± 1 nM; in [9] (setting [14]) it was 490 ± 100 nM. The “metabolic stability” value in series [3] is “phase-I metabolic degradation”. The “effect of 1-aminobenzotriazole (1-ABT)” value in [3] is on record as “adequately block phase-I metabolic decay”.

The values are drawn from patent publication US20250320245A1, “Nucleoside Analogues for the Treatment of Parasitic Infections” (Universiteit Antwerpen, priority 2021, published 2025).
